Source: ChEMBL document CHEMBL5608179, “Triptonide induces apoptosis and inhibits the proliferation of ovarian cancer cells by activating the p38/p53 pathway and autophagy” (Bioorg Med Chem, 2024)
Calls of active or inactive are those of the source. The rule behind the calls is not given here.

Key:
A2780 [1] = assay: Induction of apoptosis in human A2780 cells assessed as increase in cleaved PARP level measured after 12 to 48 hrs by Western blot analysis; type: functional, cell-based; settings: dose 5-20 nM, time 12-48 hrs
A2780 [2] = assay: Induction of apoptosis in human A2780 cells assessed as increase in cleaved caspase 9 level measured after 12 to 48 hrs by Western blot analysis; type: functional, cell-based; settings: dose 5-20 nM, time 12-48 hrs
A2780 [3] = assay: Cytotoxicity against human A2780 cells assessed as cell viability measured at 4 to 64 nM by MTT assay; type: functional, cell-based; settings: dose 4-64 nM, time 24-72 hrs, TDE = time-dependent effect
A2780 [4] = assay: Inhibition of colony formation in human A2780 cells at 0.25 to 0.5 uM incubated for 24 hrs by EdU staining based assay; type: functional, cell-based; settings: dose 0.25-0.5 µM
A2780 [5] = assay: Cytotoxicity against human A2780 cells assessed as cell viability measured in presence of SB203580 after 48 hrs by MTT assay; type: functional, cell-based
A2780 [6] = assay: Induction of apoptosis in human A2780 cells assessed as necrotic cells at 800 nM measured after 24 hrs by Annexin V-FITC/PI flow cytometry (reference value: 0.18%); type: functional
A2780 [7] = assay: Induction of apoptosis in human A2780 cells assessed as early apoptotic cells at 800 nM measured after 24 hrs by Annexin V-FITC/PI flow cytometry (reference value: 2.17%); type: functional
A2780 [8] = assay: Induction of p38 expression in human A2780 cells at 5 to 20 nM measured after 24 hrs by Western blot analysis; type: functional, cell-based; settings: dose 5-20 nM
A2780 [9] = assay: Induction of p38 expression in human A2780 cells in presence of SB203580 at 5 to 20 nM measured after 24 hrs by Western blot analysis; type: functional, cell-based; settings: dose 5-20 nM
A2780 [10] = assay: Induction of apoptosis in human A2780 cells assessed as necrotic cells in presence of bafilomycin A1 at 800 nM measured after 24 hrs by Annexin V-FITC/PI flow cytometry (reference value: 0.18%); type: functional
A2780 [11] = assay: Induction of apoptosis in human A2780 cells assessed as early apoptotic cells in presence of bafilomycin A1 at 800 nM measured after 24 hrs by Annexin V-FITC/PI flow cytometry (reference value: 2.17%); type: functional
A2780 [12] = assay: Inhibition of colony formation in human A2780 cells in presence of SB203580 at 0.25 nM incubated for 48 hrs by crystal violet staining based colony counting method; type: functional, cell-based
A2780 [13] = assay: Induction of apoptosis in human A2780 cells assessed as early apoptotic cells in presence of SB203580 at 8 nM measured after 24 to 72 hrs by Annexin V-FITC/PI flow cytometry (reference value: 2.82%); type: functional; settings: time 24-72 hrs
A2780 [14] = assay: Induction of apoptosis in human A2780 cells assessed as viable cells at 8 nM measured after 24 to 72 hrs by Annexin V-FITC/PI flow cytometry (reference value: 94.2%); type: functional; settings: time 24-72 hrs, read-out: Activity
A2780 [15] = assay: Induction of apoptosis in human A2780 cells assessed as late apoptotic cells in presence of SB203580 at 8 nM measured after 24 to 72 hrs by Annexin V-FITC/PI flow cytometry (reference value: 2.54%); type: functional; settings: time 24-72 hrs
A2780 [16] = assay: Induction of apoptosis in human A2780 cells assessed as late apoptotic cells at 4 nM measured after 24 hrs by Annexin V-FITC/PI flow cytometry (reference value: 2.54%); type: functional
A2780 [17] = assay: Induction of apoptosis in human A2780 cells assessed as viable cells in presence of p53 SiRNA 2 at 4 nM measured after 24 hrs by Annexin V-FITC/PI flow cytometry (reference value: 94.2%); type: functional
A2780 [18] = assay: Induction of apoptosis in human A2780 cells assessed as early apoptotic cells in presence of p53 SiRNA 2 at 4 nM measured after 24 hrs by Annexin V-FITC/PI flow cytometry (reference value: 2.82%); type: functional
A2780 [19] = assay: Induction of apoptosis in human A2780 cells assessed as late apoptotic cells in presence of p53 SiRNA 2 at 4 nM measured after 24 hrs by Annexin V-FITC/PI flow cytometry (reference value: 2.54%); type: functional
A2780 [20] = assay: Induction of apoptosis in human A2780 cells assessed as necrotic cells in presence of p53 SiRNA 2 at 4 nM measured after 24 hrs by Annexin V-FITC/PI flow cytometry (reference value: 0.39%); type: functional
A2780 [21] = assay: Induction of LC3II expression in human A2780 cells at 5 to 20 nM measured after 24 hrs by Western blot analysis; type: functional, cell-based; settings: dose 5-20 nM
A2780 [22] = assay: Induction of cleaved PARP level in human A2780 cells at 5 to 20 nM measured after 24 hrs by Western blot analysis; type: functional, cell-based; settings: dose 5-20 nM
A2780 [23] = assay: Cytotoxicity against human A2780 cells assessed as cell viability in presence of bafilomycin A1 upto 60 nM measured after 48 hrs by MTT assay; type: functional, cell-based
A2780 [24] = assay: Induction of cell cycle arrest in human A2780 cells assessed as accumulation of cells at G2 phase at 1 nM measured after 24 hrs by PI staining based ell Cycle Analysis Kit (KeyGEN) (reference value: 22.2%); type: functional
A2780 [25] = assay: Induction of cell cycle arrest in human A2780 cells assessed as accumulation of cells at G1 phase at 2 nM measured after 24 hrs by PI staining based ell Cycle Analysis Kit (KeyGEN) (reference value: 53.9%); type: functional
A2780 [26] = assay: Induction of cell cycle arrest at S phase in human A2780 cells assessed as increase in cyclin E1 proteins in presence of SB203580 measured at 10 nM after 24 hrs by Western blot analysis; type: functional, cell-based
A2780 [27] = assay: Induction of cell cycle arrest at S phase in human A2780 cells assessed as increase in cyclin B1 proteins in presence of SB203580 measured at 10 nM after 24 hrs by Western blot analysis; type: functional, cell-based
A2780 [28] = assay: Induction of cell cycle arrest at S phase in human A2780 cells assessed as increase in CDK2 proteins in presence of SB203580 measured at 10 nM after 24 hrs by Western blot analysis; type: functional, cell-based
A2780 [29] = assay: Induction of cell cycle arrest in human A2780 cells assessed as accumulation of cells at G1 phase in presence of SB203580 at 4 nM measured after 24 hrs by PI staining based Cell Cycle Analysis Kit (KeyGEN) (reference value: 54.2%); type: functional
A2780 [30] = assay: Induction of cell cycle arrest in human A2780 cells assessed as accumulation of cells at S phase in presence of SB203580 at 4 nM measured after 24 hrs by PI staining based Cell Cycle Analysis Kit (KeyGEN) (reference value: 15%); type: functional
[31] = Toxicity in BALB/c-nu mouse subcutaneously inoculated with human A2780 cells assessed as change in body weight at 3 to 5 mg/kg, ip administered every day for 20 days; type: organism-based; settings: in vivo, 480 h, dose 3-5 mg/kg, time 20 day
[32] = Toxicity in BALB/c-nu mouse subcutaneously inoculated with human A2780 cells assessed as morphological changes of heart at 3 to 5 mg/kg, ip administered every day for 20 days by HE staining analysis; type: organism-based; settings: in vivo, sc, 480 h, dose 3-5 mg/kg, time 20 day

CC(C)[C@]12O[C@H]1[C@@H]1O[C@]13[C@]1(O[C@H]1C[C@H]1C4=C(CC[C@@]13C)C(=O)OC4)[C@@H]2O [TRIPTOLIDE]
Activity (A2780 [1]): Dose-Dependent Effect
Activity (A2780 [2]): Dose-Dependent Effect
Activity (A2780 [3]): Tde
inhibition (A2780 [4]): Active
Activity (A2780 [5]): inactive
Activity (A2780 [6]): 2.33%
Activity (A2780 [7]): 14.7%
Activity (A2780 [8]): Active
Activity (A2780 [9]): Active
Activity (A2780 [10]): 0.75%
Activity (A2780 [11]): 5.02%
inhibition (A2780 [12]): inactive
Activity (A2780 [13]): 13.1%
viability at 0.008 µM (A2780 [14]): 55.8%
Activity (A2780 [15]): 12%
Activity (A2780 [16]): 27.5%
Activity (A2780 [17]): 66.5%
Activity (A2780 [18]): 12.6%
Activity (A2780 [19]): 14.4%
Activity (A2780 [20]): 6.47%
Activity (A2780 [21]): Active
Activity (A2780 [22]): Active
Activity (A2780 [23]): inactive
Activity (A2780 [24]): 15.4%
Activity (A2780 [25]): 62.6%
Activity (A2780 [26]): inactive
Activity (A2780 [27]): inactive
Activity (A2780 [28]): inactive
Activity (A2780 [29]): 48.7%
Activity (A2780 [30]): 19.3%
Activity [31]: Non-Toxic
Activity [32]: Non-Toxic
